In experiment [1] the target is T1, Tyrosine-protein phosphatase non-receptor type 1 (Homo sapiens, UniProt P18031).
T1 sequence (P18031 whole entry): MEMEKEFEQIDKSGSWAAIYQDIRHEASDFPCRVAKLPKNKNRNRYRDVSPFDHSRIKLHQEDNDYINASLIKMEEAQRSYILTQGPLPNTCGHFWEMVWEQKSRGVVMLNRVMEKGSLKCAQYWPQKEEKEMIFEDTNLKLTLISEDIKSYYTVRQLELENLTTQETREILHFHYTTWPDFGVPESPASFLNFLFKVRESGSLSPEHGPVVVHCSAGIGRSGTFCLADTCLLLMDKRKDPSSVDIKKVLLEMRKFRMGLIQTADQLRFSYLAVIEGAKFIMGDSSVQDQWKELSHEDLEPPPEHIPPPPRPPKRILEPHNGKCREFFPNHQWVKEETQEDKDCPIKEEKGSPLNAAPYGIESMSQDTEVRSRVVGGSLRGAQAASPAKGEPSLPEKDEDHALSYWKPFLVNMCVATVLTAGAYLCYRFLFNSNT
Nature of the experiment: Inhibition of PTP1B (unknown origin).

Experiment [2] concerns the target T2, Tyrosine-protein phosphatase non-receptor type 2 (Homo sapiens, UniProt P17706).
T2 sequence (P17706 whole entry): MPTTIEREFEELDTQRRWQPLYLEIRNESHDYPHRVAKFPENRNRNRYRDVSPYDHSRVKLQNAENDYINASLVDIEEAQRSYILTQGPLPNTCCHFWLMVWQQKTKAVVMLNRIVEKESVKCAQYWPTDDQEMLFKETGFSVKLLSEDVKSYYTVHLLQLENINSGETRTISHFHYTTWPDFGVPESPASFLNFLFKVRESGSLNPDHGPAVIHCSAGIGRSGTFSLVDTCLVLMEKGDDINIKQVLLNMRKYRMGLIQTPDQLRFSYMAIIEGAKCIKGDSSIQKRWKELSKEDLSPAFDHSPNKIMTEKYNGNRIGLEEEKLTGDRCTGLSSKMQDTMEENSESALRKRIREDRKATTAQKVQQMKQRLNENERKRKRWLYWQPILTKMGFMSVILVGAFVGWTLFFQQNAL
Nature of the experiment: Inhibition of TCPTP (unknown origin).

In experiment [3] the target is T1, Tyrosine-protein phosphatase non-receptor type 1. The experiment is described as follows: Inhibition of human recombinant PTP1B catalytic domain using p-nitrophenyl phosphate as substrate by micro plate reader method.
Experiment [4] addresses T2, Tyrosine-protein phosphatase non-receptor type 2. Nature of the experiment: Inhibition of human TCPTP using p-nitrophenyl phosphate as substrate by micro plate reader method.
Experiment [5] is filed under the species Homo sapiens. The experiment is described as follows: Selectivity ratio of IC50 for human TCPTP to IC50 for human recombinant PTP1B.
Experiment [6] concerns the target T1, Tyrosine-protein phosphatase non-receptor type 1. Nature of the experiment: Inhibition of human recombinant PTP1B expressed in Escherichia coli using p-nitrophenyl phosphate as substrate by UV spectroscopy.
Experiment [7] is filed under the species Homo sapiens. The experiment is described as follows: Selectivity ratio of IC50 for human recombinant TCPTP (1 to 341 residues) to IC50 for human recombinant PTP1B.
In experiment [8] the target is T2, Tyrosine-protein phosphatase non-receptor type 2. The experiment is described as follows: Inhibition of human recombinant TCPTP (1 to 341 residues) expressed in Escherichia coli using p-nitrophenyl phosphate as substrate by UV spectroscopy.
The species named for experiment [9] is Homo sapiens. Nature of the experiment: Selectivity ratio of IC50 for TCPTP (unknown origin) to IC50 for human PTP1B (1 to 288 residues).
The target of experiment [10] is T1, Tyrosine-protein phosphatase non-receptor type 1. The experiment is described as follows: Inhibition of human PTP1B (1 to 288 residues) expressed in Escherichia coli BL21 (DE3) cells using p-nitrophenyl phosphate as substrate monitered every 30 secs for 15 mins by micro plate reader method.
For experiment [11], the species on record is Homo sapiens. The experiment is described as follows: Selectivity ratio of Ki for TCPTP (unknown origin) to Ki for PTP1B catalytic domain (1 to 321 residues) (unknown origin).
Experiment [12] addresses T1, Tyrosine-protein phosphatase non-receptor type 1. Nature of the experiment: Inhibition of PTP1B catalytic domain (1 to 321 residues) (unknown origin) expressed in Escherichia coli BL21 (DE3) cells using p-Nitrophenyl phosphate as substrate.
For experiment [13] the target is unchanged. Nature of the experiment: Inhibition of human recombinant PTP1B catalytic domain expressed in Escherichia coli BL21 (DE3) cells using p-Nitrophenyl phosphate as substrate by microplate reader method.
The species entered for experiment [14] is Homo sapiens. The experiment is described as follows: Selectivity ratio of IC50 for human GST-tagged TCPTP to IC50 for human recombinant PTP1B catalytic domain.
Experiment [15] concerns the target T2, Tyrosine-protein phosphatase non-receptor type 2. The experiment is described as follows: Inhibition of human GST-tagged TCPTP expressed in Escherichia coli BL21 (DE3) cells using p-Nitrophenyl phosphate as substrate by microplate reader method.
The target is the same in experiment [16]. Nature of the experiment: Inhibition of human TCPTP (1 to 296 residues) catalytic domain expressed in Escherichia coli BL21 cells using fluorescein diphosphate as substrate by microplate reader method.
For experiment [17] the target is unchanged. The experiment is described as follows: Inhibition of recombinant TCPTP (unknown origin) at pH 7.
The target is the same in experiment [18]. Nature of the experiment: Inhibition of TCPTP (unknown origin) using p-nitrophenyl phosphate as substrate by colorimetric method.
Experiment [19] is filed under the species Homo sapiens. The experiment is described as follows: Selectivity ratio of Ki for TCPTP (unknown origin) to Ki for human PTP1B (1 to 288 residues).
The target of experiment [20] is T1, Tyrosine-protein phosphatase non-receptor type 1. The experiment is described as follows: Inhibition of human PTP1B (1 to 288 residues) expressed in Escherichia coli BL21 (DE3) cells using p-nitrophenyl phosphate as substrate by colorimetric method.

The IC50 is the midpoint of a concentration-inhibition curve. On to `COC(=O)c1c(O)cccc1OC/C=C/c1cccc(-c2onc(C(=O)O)c2CO)c1`, for which the IC50 in [1] was 920 nM; in [2] it was 19200 nM.
`CO[C@H]1O[C@H](Cn2cc(NC(=O)c3cccc(C(=O)Nc4cn(C[C@H]5O[C@H](OC)[C@H](OCc6ccccc6)[C@H](OCc6ccccc6)[C@@H]5OCc5ccccc5)nn4)c3)nn2)[C@@H](OCc2ccccc2)[C@@H](OCc2ccccc2)[C@H]1OCc1ccccc1`: the figures for the half-maximal inhibitory concentration (IC50) in [3] and in experiment [4] were 1500 nM and 15500 nM, respectively. Moreover, the Ratio IC50 in experiment [5] is 10.3.
In the case of `O=C(O)C(=O)c1ccc(OCc2ccc(COc3ccc(C(=O)C(=O)O)cc3)c(C(=O)Nc3ccc(Oc4ccccc4)cc3)c2)cc1`, the IC50 in experiment [6] stood at 1500 nM; in experiment [8], 2400 nM. In addition, in experiment [7], the Ratio IC50 turned out to be 1.6.
Take `COC(=O)c1c(O)cccc1OC/C=C/c1ccc(F)c(-c2cc(C(=O)O)no2)c1`: in experiment [9], the Ratio IC50 was determined as 23.8. For the same molecule, the half-inhibitory concentration (IC50) in experiment [10] amounted to 6900 nM; in [2] it was 164000 nM.
Consider `CO[C@H]1O[C@H](COCc2ccccc2)[C@@H](OCc2ccccc2)[C@H](OCc2cn(CCCOc3ccc(O)c(C(=O)O)c3)nn2)[C@H]1OCc1cn(CCCOc2ccc(O)c(C(=O)O)c2)nn1`, for which the IC50 turned out to be 7700 nM in experiment [3] and 54300 nM in [4]. Further, the Ratio IC50 in experiment [5] was determined as 7.05.
The term Ki denotes a measure of affinity in units of concentration, obtained from inhibition or displacement. On to `NC(=O)[C@H](Cc1ccc(C(F)(F)P(=O)(O)O)cc1)NC(=O)[C@H](Cc1ccc(O)cc1)NC(=O)Cc1ccc(C(F)(F)P(=O)(O)O)cc1`, for which, in experiment [11], the Ratio Ki turned out to be 4.08. Further, the Ki was 20 nM in experiment [2] and 4.9 nM in experiment [12].
Regarding `COC(=O)[C@H](Cc1ccc(O)cc1)n1cc(CO[C@H]2[C@@H](OCc3ccccc3)[C@@H](OC)O[C@H](COCc3ccccc3)[C@H]2OCc2cn([C@@H](Cc3ccc(O)cc3)C(=O)OC)nn2)nn1`, the half-maximal inhibitory concentration (IC50) in [13] came out at 9600 nM; in experiment [15], 59600 nM. Also, the Ratio IC50 in experiment [14] stood at 6.2.
`CC(=O)N[C@H](Cc1ccc(N(C(=O)C(=O)O)c2ccccc2C(=O)O)c2ccccc12)C(=O)NCCCCCOc1cc2ccccc2cc1C(=O)O` yielded an IC50 in [2] of 49 nM.
The molecule `COC(=O)c1ccc(C(C/C=C/c2ccccc2)(Cc2ccc(C(F)(F)P(=O)(O)O)cc2)n2nnc3ccccc32)cc1` (stereo unspecified) had an IC50 in [16] of 87 nM.
In the case of `O=C(O)C(=O)Nc1sc2c(c1C(=O)O)CCN(CCc1ccccc1)C2`, the inhibition constant Ki in experiment [17] amounted to 7200 nM.
As for `CCCCCNC(=O)[C@H](Cc1ccc(C(=O)C(=O)Nc2ccccc2C(=O)O)c(/C=C/C(N)=O)c1)NS(C)(=O)=O`, the Ki in [18] amounted to 160 nM; in experiment [20], 170 nM. Moreover, in experiment [19], the Ratio Ki stood at 0.94.

Values taken from ChEMBL document CHEMBL3817817, “The design strategy of selective PTP1B inhibitors over TCPTP” (Bioorg Med Chem, 2016).
